The values that follow are results of earlier work, collected in patent US9572826B2, “Compositions for the treatment of hair loss” (priority 2008, dated 2017).

One data set has as its system hair loss. The following applies: human, in vivo.
For another data set, the system named is alopecia areata. The following applies: intralesional injection.

Structures are written as SMILES.

As for `CC(C)(C)NC(=O)[C@H]1CC[C@H]2[C@@H]3CC[C@H]4NC(=O)C=C[C@]4(C)[C@H]3CC[C@]12C` [Finasteride], in the data set with hair loss, the “patients in whom effective” value was “approximately 50%”; the side effects reported entry is “erectile dysfunction and gynecomastica”.

For the compound `CC(C)(C)CC(=O)OCC(=O)[C@@]12OC(C)(C)O[C@@H]1C[C@H]1[C@@H]3CCC4=CC(=O)C=C[C@]4(C)[C@@]3(F)[C@@H](O)C[C@@]12C` [triamcinolone hexacetonide], in the data set on alopecia areata, the “injected sites with hair regrowth” value is recorded as 33 out of 34.
